In patent US10100049B2, “JAK kinase inhibitor compounds for treatment of respiratory disease” (THERAVANCE BIOPHARMA R&D IP, LLC, priority 2015, dated 2018):

Key:
[1] = test system: Alternaria-induced BALF eosinophils; assay: Murine model of Alternaria alternata-induced eosinophilic inflammation of the lung; type: in vivo; settings: mouse; maximum statistically significant inhibition; 0.1-1.0 mg/mL, 50 μL oropharyngeal aspiration; BALF 48 h after alternaria
Procedure: Airway eosinophilia is a hallmark of human asthma. Alternaria alternata is a fungal aeroallergen that can exacerbate asthma in humans and induces eosinophilic inflammation in the lungs of mice (Havaux et al. Clin Exp Immunol. 2005, 139(2):179-88).
Seven- to nine-week old male C57 mice from Taconic were used in the study. On the day of study, animals were lightly anesthetized with isoflurane and administered either vehicle or test compound (0.1-1.0 mg/mL, 50 μL total volume over several breaths) via oropharyngeal aspiration. Animals were placed in lateral recumbency post dose and monitored for full recovery from anesthesia before being returned to their home cage. One hour later, animals were once again briefly anesthetized and challenged with either vehicle or alternaria extract (200 ug total extract delivered, 50 μL total volume) via oropharyngeal aspiration before being monitored for recovery from anesthesia and returned to their home cage. Forty-eight hours after alternaria administration, bronchoalveolar lavage fluid (BALF) was collected and eosinophils were counted in the BALF using the Advia 120 Hematology System (Siemens).
Selected compounds of the invention were tested in this alternaria assay. Activity in the model is evidenced by a decrease in the level of eosinophils present in the BALF of treated animals at forty-eight hours compared to the vehicle treated, alternaria challenged control animals. Data are expressed as percent inhibition of the vehicle treated, alternaria challenged BALF eosinophils response. To calculate percent inhibition, the number of BALF eosinophils for each condition is converted to percent of the average vehicle treated, alternaria challenged BALF eosinophils and subtracted from one-hundred percent.

[2] = Pharmacokinetics in plasma and lung in mouse; type: in vivo; settings: oral aspiration 0.2 mg/mL 50 uL, lung AUC (μg hr/g) / plasma AUC (μg hr/mL)
Procedure: Plasma and lung levels of test compounds and ratios thereof were determined in the following manner. BALB/c mice from Charles River Laboratories were used in the assay. Test compounds were individually formulated in 20% propylene glycol in pH 4 citrate buffer at a concentration of 0.2 mg/mL and 50 uL of the dosing solution was introduced into the trachea of a mouse by oral aspiration. At various time points (typically 0.167, 2, 6, 24 hr) post dosing, blood samples were removed via cardiac puncture and intact lungs were excised from the mice. Blood samples were centrifuged (Eppendorf centrifuge, 5804R) for 4 minutes at approximately 12,000 rpm at 4° C. to collect plasma. Lungs were padded dry, weighed, and homogenized at a dilution of 1:3 in sterile water. Plasma and lung levels of test compound were determined by LC-MS analysis against analytical standards constructed into a standard curve in the test matrix. A lung to plasma ratio was determined as the ratio of the lung AUC in μg hr/g to the plasma AUC in μg hr/mL, where AUC is conventionally defined as the area under the curve of test compound concentration vs. time.

[3] = test system: IL-13 induced pSTAT6 in lung tissue; assay: Murine model of IL-13 induced pSTAT6 induction in lung tissue; type: in vivo; settings: mouse lung, 0.5 mg/mL, 50 μL oral aspiration, IL-13 challenge 4 h after dosing, lungs collected 1 h later; for inhibition in vivo at 500 µg/mL: read-out: pSTAT6 inhibition Assay 5
Procedure: Il-13 is an important cytokine underlying the pathophysiology of asthma (Kudlacz et al. Eur. J. Pharmacol, 2008, 582, 154-161). IL-13 binds to cell surface receptors activating members of the Janus family of kinases (JAK) which then phosphorylate STAT6 and subsequently activates further transcription pathways. In the described model, a dose of IL-13 was delivered locally into the lungs of mice to induce the phosphorylation of STAT6 (pSTAT6) which is then measured as the endpoint.
Adult balb/c mice from Harlan were used in the assay. On the day of study, animals were lightly anesthetized with isoflurane and administered either vehicle or test compound (0.5 mg/mL, 50 μL total volume over several breaths) via oral aspiration. Animals were placed in lateral recumbency post dose and monitored for full recovery from anesthesia before being returned to their home cage. Four hours later, animals were once again briefly anesthetized and challenged with either vehicle or IL-13 (0.03 μg total dose delivered, 50 μL total volume) via oral aspiration before being monitored for recovery from anesthesia and returned to their home cage. One hour after vehicle or IL-13 administration, lungs were collected for both pSTAT6 detection using an anti-pSTAT6 ELISA (rabbit mAb capture/coating antibody; mouse mAb detection/report antibody: anti-pSTAT6-pY641; secondary antibody: anti-mouse IgG-HRP) and analyzed for total drug concentration as described above in Assay 4.
Selected compounds of the invention were tested in the assay. Activity in the model is evidenced by a decrease in the level of pSTAT6 present in the lungs of treated animals at 5 hours compared to the vehicle treated, IL-13 challenged control animals. The difference between the control animals which were vehicle-treated, IL-13 challenged and the control animals which were vehicle-treated, vehicle challenged dictated the 0% and 100% inhibitory effect, respectively, in any given experiment.

Tyk2 = Tyk2 (Homo sapiens (Human), UniProt P29597); assay: LanthaScreen JAK biochemical assay (Tyk2); settings: read-out: Tyk 2 (PKi); note: ATP at Km 10 µM
JAK2 = JAK2 (Homo sapiens (Human), UniProt O60674)
[4] = test system: IL-13 induced STAT6 phosphorylation in BEAS-2B human lung epithelial cells; assay: AlphaScreen cellular potency assay, IL-13 induced STAT6 phosphorylation in BEAS-2B cells; type: cell-based; settings: IL-13 induced STAT6 phosphorylation, BEAS-2B cells; for IC50: Homo sapiens, read-out: BEAS-2B pIC50 (converted)
Procedure: The AlphaScreen JAM cellular potency assay was carried out by measuring interleukin-13 (IL-13, R&D Systems) induced STAT6 phosphorylation in BEAS-2B human lung epithelial cells (ATCC). The anti-STAT6 antibody (Cell Signaling Technologies) was conjugated to AlphaScreen acceptor beads (Perkin Elmer), while the anti-pSTAT6 (pTyr641) antibody (Cell Signaling Technologies) was biotinylated using EZ-Link Sulfo-NHS-Biotin (Thermo Scientific).
BEAS-2B cells were grown at 37° C. in a 5% CO2 humidified incubator in 50% DMEM/50% F-12 medium (Life Technologies) supplemented with 10% FBS (Hyclone), 100 U/mL penicillin, 100 μg/mL streptomycin (Life Technologies), and 2 mM GlutaMAX (Life Technologies). On day 1 of the assay, cells were seeded at a 7,500 cells/well density in white poly-D-lysine-coated 384-well plates (Corning) with 25 μL medium, and were allowed to adhere overnight in the incubator. On day 2 of the assay, the medium was removed and replaced with 12 μL of assay buffer (Hank's Balanced Salt Solution/HBSS, 25 mM HEPES, and 1 mg/ml bovine serum albumin/BSA) containing dose-responses of test compounds. Compounds were serially diluted in DMSO and then diluted another 1000-fold in media to bring the final DMSO concentration to 0.1%. Cells were incubated with test compounds at 37° C. for 1 h, and followed by the addition of 12 μl of pre-warmed IL-13 (80 ng/ml in assay buffer) for stimulation. After incubating at 37° C. for 30 min, the assay buffer (containing compound and IL-13) was removed, and 10 μl of cell lysis buffer (25 mM HEPES, 0.1% SDS, 1% NP-40, 5 mM MgCl2, 1.3 mM EDTA, 1 mM EGTA, and supplement with Complete Ultra mini protease inhibitors and PhosSTOP from Roche Diagnostics). The plates were shaken at ambient temperature for 30 min before the addition of detection reagents. A mixture of biotin-anti-pSTAT6 and anti-STAT6 conjugated acceptor beads was added first and incubated at ambient temperature for 2 h, followed by the addition of streptavidin conjugated donor beads (Perkin Elmer). After a minimum of 2 h incubation, the assay plates were read on the EnVision plate reader.
Results were expressed as the negative logarithm of the IC50 value, pIC50.

JAK3 = JAK3 (Homo sapiens (Human), UniProt P52333); assay: LanthaScreen JAK biochemical assay (JAK3); settings: ATP at Km 1.6 μM; read-out: JAK 3 (pKi) (converted)
Sequence of JAK3 (P52333 whole entry): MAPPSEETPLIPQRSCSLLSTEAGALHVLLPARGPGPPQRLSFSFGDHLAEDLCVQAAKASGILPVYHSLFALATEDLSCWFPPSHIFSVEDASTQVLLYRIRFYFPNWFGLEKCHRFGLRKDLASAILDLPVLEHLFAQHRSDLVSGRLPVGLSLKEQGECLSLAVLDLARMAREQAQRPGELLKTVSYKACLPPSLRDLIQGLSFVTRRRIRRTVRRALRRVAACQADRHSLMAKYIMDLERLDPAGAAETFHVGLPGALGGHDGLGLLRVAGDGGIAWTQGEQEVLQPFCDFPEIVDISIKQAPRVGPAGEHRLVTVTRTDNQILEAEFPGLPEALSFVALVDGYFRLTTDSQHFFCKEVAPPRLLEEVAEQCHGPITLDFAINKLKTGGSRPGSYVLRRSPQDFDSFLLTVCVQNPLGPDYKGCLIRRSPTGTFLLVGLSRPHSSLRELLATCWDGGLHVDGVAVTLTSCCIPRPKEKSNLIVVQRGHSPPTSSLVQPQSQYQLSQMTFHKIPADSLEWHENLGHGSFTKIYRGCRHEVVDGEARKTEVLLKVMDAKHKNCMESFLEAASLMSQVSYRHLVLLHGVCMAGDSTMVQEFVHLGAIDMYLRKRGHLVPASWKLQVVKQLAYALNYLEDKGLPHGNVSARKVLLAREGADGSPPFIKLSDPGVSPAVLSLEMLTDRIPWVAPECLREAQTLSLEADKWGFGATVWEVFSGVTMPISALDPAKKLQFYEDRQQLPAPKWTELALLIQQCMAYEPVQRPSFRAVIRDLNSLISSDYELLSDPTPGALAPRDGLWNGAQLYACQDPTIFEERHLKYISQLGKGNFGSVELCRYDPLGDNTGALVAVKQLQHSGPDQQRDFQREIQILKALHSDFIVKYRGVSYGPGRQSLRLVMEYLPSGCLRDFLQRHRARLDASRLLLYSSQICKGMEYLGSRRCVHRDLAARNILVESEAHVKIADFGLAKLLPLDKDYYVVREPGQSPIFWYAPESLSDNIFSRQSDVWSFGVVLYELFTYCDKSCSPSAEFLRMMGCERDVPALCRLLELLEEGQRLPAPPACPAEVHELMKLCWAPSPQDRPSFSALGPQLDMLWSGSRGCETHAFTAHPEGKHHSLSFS

Sequence of JAK2 (O60674 whole entry): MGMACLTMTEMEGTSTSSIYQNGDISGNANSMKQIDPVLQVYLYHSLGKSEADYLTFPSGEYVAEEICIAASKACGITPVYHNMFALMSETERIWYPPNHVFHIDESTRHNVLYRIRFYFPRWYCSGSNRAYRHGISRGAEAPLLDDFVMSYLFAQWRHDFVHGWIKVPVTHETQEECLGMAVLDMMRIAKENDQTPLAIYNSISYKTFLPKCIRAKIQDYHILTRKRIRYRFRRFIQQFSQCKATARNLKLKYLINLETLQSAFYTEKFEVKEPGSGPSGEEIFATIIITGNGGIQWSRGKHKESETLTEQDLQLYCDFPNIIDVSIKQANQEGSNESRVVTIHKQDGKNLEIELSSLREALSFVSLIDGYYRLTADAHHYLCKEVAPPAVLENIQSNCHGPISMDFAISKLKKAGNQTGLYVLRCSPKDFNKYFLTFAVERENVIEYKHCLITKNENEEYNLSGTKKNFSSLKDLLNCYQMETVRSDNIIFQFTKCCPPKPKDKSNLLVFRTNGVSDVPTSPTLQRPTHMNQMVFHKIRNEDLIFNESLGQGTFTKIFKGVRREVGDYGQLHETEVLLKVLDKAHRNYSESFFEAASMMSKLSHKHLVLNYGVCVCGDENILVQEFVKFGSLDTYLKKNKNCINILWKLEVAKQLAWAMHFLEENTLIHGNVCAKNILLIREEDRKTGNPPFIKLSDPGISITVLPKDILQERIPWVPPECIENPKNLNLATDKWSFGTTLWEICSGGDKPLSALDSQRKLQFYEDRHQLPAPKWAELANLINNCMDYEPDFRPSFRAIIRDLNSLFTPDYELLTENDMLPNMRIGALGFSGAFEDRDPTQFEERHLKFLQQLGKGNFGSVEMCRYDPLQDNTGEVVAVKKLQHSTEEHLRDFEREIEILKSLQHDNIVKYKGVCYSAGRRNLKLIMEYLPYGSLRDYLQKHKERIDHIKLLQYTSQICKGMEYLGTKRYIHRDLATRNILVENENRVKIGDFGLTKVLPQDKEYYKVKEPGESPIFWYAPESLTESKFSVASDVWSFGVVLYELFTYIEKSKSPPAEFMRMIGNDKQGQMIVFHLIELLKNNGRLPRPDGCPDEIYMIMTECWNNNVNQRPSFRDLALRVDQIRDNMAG
Sequence of Tyk2 (P29597 whole entry): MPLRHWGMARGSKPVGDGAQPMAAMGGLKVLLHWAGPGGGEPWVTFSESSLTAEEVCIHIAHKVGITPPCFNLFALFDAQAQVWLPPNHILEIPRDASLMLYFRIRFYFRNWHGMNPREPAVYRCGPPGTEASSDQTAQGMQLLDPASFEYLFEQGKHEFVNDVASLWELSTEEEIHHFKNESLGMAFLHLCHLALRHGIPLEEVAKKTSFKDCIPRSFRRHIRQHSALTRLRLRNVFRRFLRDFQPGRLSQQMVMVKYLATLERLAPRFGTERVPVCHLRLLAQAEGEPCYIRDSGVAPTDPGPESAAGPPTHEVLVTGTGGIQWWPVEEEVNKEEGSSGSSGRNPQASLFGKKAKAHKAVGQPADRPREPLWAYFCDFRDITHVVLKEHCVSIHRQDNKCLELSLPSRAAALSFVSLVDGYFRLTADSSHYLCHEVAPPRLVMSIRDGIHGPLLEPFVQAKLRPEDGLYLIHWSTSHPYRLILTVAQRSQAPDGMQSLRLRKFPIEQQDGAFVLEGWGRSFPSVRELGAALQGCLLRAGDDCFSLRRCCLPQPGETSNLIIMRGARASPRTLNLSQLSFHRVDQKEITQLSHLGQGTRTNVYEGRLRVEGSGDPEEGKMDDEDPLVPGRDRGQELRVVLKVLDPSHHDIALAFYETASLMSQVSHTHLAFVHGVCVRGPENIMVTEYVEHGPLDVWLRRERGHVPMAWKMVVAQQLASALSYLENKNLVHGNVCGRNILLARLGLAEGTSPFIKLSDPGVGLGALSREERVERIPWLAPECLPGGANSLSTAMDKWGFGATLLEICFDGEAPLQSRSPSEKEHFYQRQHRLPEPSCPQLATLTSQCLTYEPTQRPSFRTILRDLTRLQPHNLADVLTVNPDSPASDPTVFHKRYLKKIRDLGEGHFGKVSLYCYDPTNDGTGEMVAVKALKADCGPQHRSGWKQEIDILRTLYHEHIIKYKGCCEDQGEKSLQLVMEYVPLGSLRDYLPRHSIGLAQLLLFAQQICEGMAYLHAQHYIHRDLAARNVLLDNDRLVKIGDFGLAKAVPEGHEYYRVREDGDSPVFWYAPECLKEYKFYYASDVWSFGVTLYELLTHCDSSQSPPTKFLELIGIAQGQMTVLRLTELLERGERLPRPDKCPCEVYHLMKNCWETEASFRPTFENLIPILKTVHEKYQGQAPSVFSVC

SMILES | Percent Inhibition of Alternaria-induced BALF Eosinophils [1] [%] | Lung to Plasma ratio Assay 4 [2] | inhibition in vivo at 500 µg/mL [3] [%] | Ki (Tyk2) [nM] | Ki (JAK2) [nM] | IC50 [4] [nM] | Ki (JAK3) [nM] | pSTAT6 inhibition Assay 5 [3] | BEAS-2B pIC50 [4]
CCc1cc(O)c(F)cc1-c1ccc2c(-c3nc4c([nH]3)CCN(C3CNC3)C4)n[nH]c2c1 [Example 2, 4-(3-(5-(azetidin-3-yl)-4,5,6,7-tetrahydro-1H-imidazo[4,5-c]pyridin-2-yl)-1H-indazol-6-yl)-5-ethyl-2-fluorophenol] | 93 | C (C denotes a ratio between 10 and 50) | 33 to 50 | 0.1 to 1 | < 0.1 | 10 to 39.8 |  |  | 
CCc1cc(O)c(F)cc1-c1ccc2c(-c3nc4c([nH]3)CCN(CCN(C)C)C4)n[nH]c2c1 [Example 7, 4-(3-(5-(2-(dimethylamino)ethyl)-4,5,6,7-tetrahydro-1H-imidazo[4,5-c]pyridin-2-yl)-1H-indazol-6-yl)-5-ethyl-2-fluorophenol] | 96 | B (B denotes a ratio between 50 and 100) | > 65 |  | < 0.1 | < 10 |  |  | 
CCc1cc(O)c(F)cc1-c1ccc2c(-c3nc4c([nH]3)CCN(C3CN(C5CC5)C3)C4)n[nH]c2c1 [Example 5, 4-(3-(5-(1-cyclopropylazetidin-3-yl)-4,5,6,7-tetrahydro-1H-imidazo[4,5-c]pyridin-2-yl)-1H-indazol-6-yl)-5-ethyl-2-fluorophenol] |  | C (C denotes a ratio between 10 and 50) | > 65 | 0.316 to 1 | < 0.1 | < 10 | 0.1 to 1 |  | 
CCc1cc(O)c(F)cc1-c1ccc2c(-c3nc4c([nH]3)CCN(CCN(C)C(C)CC)C4)n[nH]c2c1 (stereo not shown) [Example 10, 4-(3-(5-(2-(sec-butyl(methyl)amino)ethyl)-4,5,6,7-tetrahydro-1H-imidazo[4,5-c]pyridin-2-yl)-1H-indazol-6-yl)-5-ethyl-2-fluorophenol] |  | B (B denotes a ratio between 50 and 100) | 33 to 50 | 0.1 to 1 | < 0.1 | < 10 | 0.1 to 1 |  | 
CCc1cc(O)c(F)cc1-c1ccc2c(-c3nc4c([nH]3)CCN(CC(F)CN(C)C)C4)n[nH]c2c1 (stereo not shown) [Example 12, 4-(3-(5-(3-(dimethylamino)-2-fluoropropyl)-4,5,6,7-tetrahydro-1H-imidazo[4,5-c]pyridin-2-yl)-1H-indazol-6-yl)-5-ethyl-2-fluorophenol] |  | C (C denotes a ratio between 10 and 50) | 33 to 50 | 0.316 to 1 | < 0.1 | < 10 | 0.1 to 1 |  | 
CCc1cc(O)c(F)cc1-c1ccc2c(-c3nc4c([nH]3)CCN(CCN3CCC[C@@H]3C)C4)n[nH]c2c1 [Example 15, (S)-5-ethyl-2-fluoro-4-(3-(5-(2-(2-methylpyrrolidin-1-yl)ethyl)-4,5,6,7-tetrahydro-1H-imidazo[4,5-c]pyridin-2-yl)-1H-indazol-6-yl)phenol] |  | A (A denotes a ratio >100) | 50 to 65 | 0.316 to 1 | < 0.1 | < 10 | 0.1 to 1 |  | 
CCc1cc(O)c(F)cc1-c1ccc2c(-c3nc4c([nH]3)CCN(C3CCN(C)CC3)C4)n[nH]c2c1 [Example 6, 5-Ethyl-2-fluoro-4-(3-(5-(1-methylpiperidin-4-yl)-4,5,6,7-tetrahydro-1H-imidazo[4,5-c]pyridin-2-yl)-1H-indazol-6-yl)phenol] | 88 | B (B denotes a ratio between 50 and 100) | 50 to 65 | 0.1 to 1 | < 0.1 | < 10 | 0.1 to 1 |  | 
CCc1cc(O)c(F)cc1-c1ccc2c(-c3nc4c([nH]3)CCN(C[C@H]3COCCN3)C4)n[nH]c2c1 [Example 13, (S)-5-Ethyl-2-fluoro-4-(3-(5-(morpholin-3-ylmethyl)-4,5,6,7-tetrahydro-1H-imidazo[4,5-c]pyridin-2-yl)-1H-indazol-6-yl)phenol] | 82 | A (A denotes a ratio >100) | 33 to 50 | 0.316 to 1 | < 0.1 | < 10 | 0.1 to 1 |  | 
CCc1cc(O)c(F)cc1-c1ccc2c(-c3nc4c([nH]3)CCN(CCNC3CC(OC)C3)C4)n[nH]c2c1 (stereo not shown) [Example 8, 5-Ethyl-2-fluoro-4-(3-(5-(2-((3-methoxycyclobutyl)amino)ethyl)-4,5,6,7-tetrahydro-1H-imidazo[4,5-c]pyridin-2-yl)-1H-indazol-6-yl)phenol] | 60 | A (A denotes a ratio >100) | 50 to 65 | 0.1 to 1 | < 0.1 | < 10 | 0.1 to 1 |  | 
CCc1cc(O)c(F)cc1-c1ccc2c(-c3nc4c([nH]3)CCN(C3CN(C)C3)C4)n[nH]c2c1 [Example 1, 5-Ethyl-2-fluoro-4-(3-(5-(1-methylazetidin-3-yl)-4,5,6,7-tetrahydro-1H-imidazo[4,5-c]pyridin-2-yl)-1H-indazol-6-yl)phenol] | 98 | B (B denotes a ratio between 50 and 100) | > 65 |  | < 0.1 | < 10 |  |  | 
CCc1cc(O)c(F)cc1-c1ccc2c(-c3nc4c([nH]3)CCN(C3CCN(C)C3)C4)n[nH]c2c1 (stereo not shown) [Example 9-2] |  |  |  | 0.316 to 1 | < 0.1 | < 10 |  |  | 
CCc1cc(O)c(F)cc1-c1ccc2c(-c3nc4c([nH]3)CCN(CC3CNC3)C4)n[nH]c2c1 [Example 14-7] |  | A (A denotes a ratio >100) |  |  | < 0.1 |  |  | B (B represents between 50% and 65% inhibition) | B (B represents a pIC50 value between 7.4 and 8 (IC50 between 40 nM and 10 nM))
CCc1cc(O)c(F)cc1-c1ccc2c(-c3nc4c([nH]3)CCN(CCN(C)CC)C4)n[nH]c2c1 [Example 9, 5-ethyl-4-(3-(5-(2-(ethyl(methyl)amino)ethyl)-4,5,6,7-tetrahydro-1H-imidazo[4,5-c]pyridin-2-yl)-1H-indazol-6-yl)-2-fluorophenol] |  | B (B denotes a ratio between 50 and 100) | 50 to 65 | 0.316 to 1 | < 0.1 | < 10 |  |  | 
